Data: patent US20040087558A1, “Methods of using and compositions comprising selective cytokine inhibitory drugs for treatment, modification and management of pain” (priority 2002, published 2004)

Legend:
[1] = Cardiovascular and respiratory function in anesthetized dogs; format: in vivo; conditions: anesthetized Beagle dogs; ascending doses 400, 800 and 1,200 mg/kg/day by infusion through the jugular vein
Description: The effects of 3-(3,4-dimethoxy-phenyl)-3-(1-oxo-1,3-dihydro-isoindol-2-yl)-propionamide on cardiovascular and respiratory function are investigated in anesthetized dogs. Two groups of Beagle dogs (2/sex/group) are used. One group receives three doses of vehicle only and the other receives three ascending doses of 3-(3,4-dimethoxy-phenyl)-3-(1-oxo-1,3-dihydro-isoindol-2-yl)-propionamide (400, 800, and 1,200 mg/kg/day). In all cases, doses of 3-(3,4-dimethoxy-phenyl)-3-(1-oxo-1,3-dihydro-isoindol-2-yl)-propionamide or vehicle are successively administered via infusion through the jugular vein separated by intervals of at least 30 minutes.

[2] = Clinical study in pain patients with upper extremity CRPS; format: in vivo, human; conditions: 1,200 mg as a continuous oral daily dose
Description: Selective cytokine inhibitory drugs of the invention such as 3-(3,4-dimethoxy-phenyl)-3-(1-oxo-1,3-dihydro-isoindol-2-yl)-propionamide are administered in an amount of 400 to 1,200 mg per day to patients with pain syndromes for three to six months. A baseline evaluation is performed for the effect of the drug treatment on pain intensity, impact of pain on activities of daily living, and consumption of other pain medications.
In a specific embodiment, clinical studies are performed in pain patients who have upper extremity CRPS that has not responded to conventional physical therapy and has been present for at least one year. In the early course of their diseases, patients have clear evidence of autonomic dysfunction with formal autonomic testing (Quantitative sudomotor axon reflex test (QSART), resting sweat output, and thermography). If this is unavailable, documentation of clinical signs indicates autonomic dysfunction (changes in hydration, temperature, skin, nail or hair growth) along with symptoms of allodynia and swelling. […] Responses are assessed using standard pain scales, e.g., Numeric Pain Scale Assessment (VAS) for pain, quality of life using the McGill Index and objective signs in clinical examination such as a visible reduction of swelling, sweating, discolorations in skin color, temperature changes, changes in skin, hair and nail growth, and fine motor movements. […]

TNF-α production = experiment: Inhibition of TNF-α production following LPS-stimulation of human PBMC and human whole blood; format: cell-based; conditions: in vitro studies; compared with thalidomide
Description: In a specific embodiment, the pharmacological properties of 3-(3,4-dimethoxy-phenyl)-3-(1-oxo-1,3-dihydro-isoindol-2-yl)-propionamide are characterized in in vitro studies. Studies examine the effects of the compound on the production of various cytokines. Inhibition of TNF-α production following LPS-stimulation of human PBMC and human whole blood by the compound is investigated in vitro. The IC50's of the compound for inhibiting production of TNF-α are measured. […] The pharmacological effects of 3-(3,4-dimethoxy-phenyl)-3-(1-oxo-1,3-dihydro-isoindol-2-yl)-propionamide may derive from its action as an inhibitor of the generation of inflammatory cytokines.

[3] = 8 to 10 mg/kg i.p.; acute pain assays; cited from earlier work

SMILES | cardiovascular and respiratory changes compared to the vehicle control group [1] | tolerability [2] | pharmacological activity profile, potency relative to thalidomide (TNF-α production) | anti-nociceptive response [3]
COc1ccc(C(CC(N)=O)N2Cc3ccccc3C2=O)cc1OC (stereo not shown) [3-(3,4-dimethoxy-phenyl)-3-(1-oxo-1,3-dihydro-isoindol-2-yl)-propionamide] | minimal at all doses | well-tolerated | five to fifty | 
CN1CC[C@]23c4c5ccc(O)c4O[C@H]2[C@@H](O)C=C[C@H]3[C@H]1C5 [morphine] |  |  |  | near-maximal anti-nociceptive response
